In PMC2213567 (The Journal of General Physiology, 2008):

Target: α4β2δ GABAAR (Mus musculus (alpha4); Rattus norvegicus (beta2); Homo sapiens (delta), UniProt P63138+Q9D6F4)
Assay: ultrafast agonist application, outside-out macropatch
Type: cell-based

Chain of α4β2δ GABAAR (Q9D6F4 36-552): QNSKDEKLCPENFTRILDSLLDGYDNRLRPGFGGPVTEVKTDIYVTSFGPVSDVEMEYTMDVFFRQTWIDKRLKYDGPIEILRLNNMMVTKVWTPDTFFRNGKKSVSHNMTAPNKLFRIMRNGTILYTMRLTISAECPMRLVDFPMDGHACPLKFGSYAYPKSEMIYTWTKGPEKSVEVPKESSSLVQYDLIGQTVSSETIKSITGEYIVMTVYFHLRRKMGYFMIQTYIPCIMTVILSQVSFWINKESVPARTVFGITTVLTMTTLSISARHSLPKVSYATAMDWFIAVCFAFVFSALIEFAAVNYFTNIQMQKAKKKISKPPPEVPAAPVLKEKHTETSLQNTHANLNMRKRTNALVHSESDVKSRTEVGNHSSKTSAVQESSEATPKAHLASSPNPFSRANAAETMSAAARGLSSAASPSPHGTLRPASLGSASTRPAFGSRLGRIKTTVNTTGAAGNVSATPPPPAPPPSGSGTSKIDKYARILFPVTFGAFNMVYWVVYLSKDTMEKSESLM
Chain of α4β2δ GABAAR (P63138 26-474): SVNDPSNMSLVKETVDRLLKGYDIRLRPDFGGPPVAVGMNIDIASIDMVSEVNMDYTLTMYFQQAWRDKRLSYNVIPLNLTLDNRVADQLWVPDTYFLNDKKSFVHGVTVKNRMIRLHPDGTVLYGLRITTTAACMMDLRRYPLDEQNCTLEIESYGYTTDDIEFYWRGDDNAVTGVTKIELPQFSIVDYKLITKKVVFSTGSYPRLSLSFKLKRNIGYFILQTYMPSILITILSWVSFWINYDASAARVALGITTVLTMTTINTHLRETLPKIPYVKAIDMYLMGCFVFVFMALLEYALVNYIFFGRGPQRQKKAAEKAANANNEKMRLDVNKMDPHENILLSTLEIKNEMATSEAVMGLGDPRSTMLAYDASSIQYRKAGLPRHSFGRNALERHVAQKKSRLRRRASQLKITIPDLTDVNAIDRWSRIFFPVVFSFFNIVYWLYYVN
Chain of α4β2δ GABAAR (O14764 25-452 partner): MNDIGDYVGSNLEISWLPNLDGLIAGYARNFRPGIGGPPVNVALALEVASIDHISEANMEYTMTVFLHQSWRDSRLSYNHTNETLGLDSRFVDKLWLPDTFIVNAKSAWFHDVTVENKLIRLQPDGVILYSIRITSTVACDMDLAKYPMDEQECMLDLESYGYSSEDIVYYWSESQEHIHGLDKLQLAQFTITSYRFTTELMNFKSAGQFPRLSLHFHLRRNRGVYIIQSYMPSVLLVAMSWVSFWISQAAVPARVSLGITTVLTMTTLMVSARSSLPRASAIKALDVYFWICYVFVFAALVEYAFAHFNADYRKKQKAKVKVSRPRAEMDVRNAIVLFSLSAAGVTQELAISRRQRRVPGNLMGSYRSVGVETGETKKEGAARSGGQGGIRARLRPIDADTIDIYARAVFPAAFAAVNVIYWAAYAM

Oc1noc2c1CCNC2 [THIP, 4,5,6,7-tetrahydroisoxazolo[5,4-c]pyridin-3(2H)-one]
Kd: 683 µM
